Measured values: patent US5556849A, “Ruthenium containing phthalocyanin photosensitizers” (priority 1991, dated 1996)

How the values were obtained:
[1] = Light absorption maxima and molar extinction coefficients; format: physicochemical; conditions: for λmax Q: in water (W)
Description: (§1) Compounds according to the invention were assessed and characterised by their light absorption maxima, and their molar extinction coefficients according to conventional test procedures. Most of the compound were tested for their biological activity according to conventional test procedures in the art. The PC50 represents phototoxic concentration 50%. which is the concentration of compound when exposed to a light dose as described herein, causes a 50% reduction in cancer cell growth vs an untreated control population. The phototoxicity index. PI, is the ratio of the PC50 to the cytotoxic concentration 50%. where the growth is reduced by 50% without a light dose being given.

[2] = tested on: Adherent cells (HeLa RCA. SKOV OVCAR); assay: Phototoxicity (Light): 3H-thymidine incorporation in adherent cells after irradiation, with dark cytotoxicity for PI; format: cell-based; conditions: for PI (phototoxicity index): ratio of PC50 to cytotoxic concentration 50% (no light); for IC50: read-out: PC50 (phototoxic concentration 50%)
Description: The media is removed and the cells washed three times with D-PBS. and then covered with D-PBS (200 μl ) and exposed to light from the same source used in the singlet oxygen assay.
This follows the procedure for phototoxicity except that the cells are never exposed to light. The assay is relative to a non-treated control.
as §1
PC50 is determined by a relatively simple in vitro assay on a cellular level, which is generally indicative of photosensitizing activity.

normal rat liver = assay: Photodynamic threshold dose in normal rat liver, depth of necrosis; format: in vivo, adult Wistat rats
Description: The photodynamic threshold dose in normal rat liver was used as a model. This has been developed by Singh and Wilson at McMaster University and used to study both chloroaluminum phthalocyanine sulfonate (ASPc) and photofrin (Patterson, M S, et at, Photochern Photobiol, 51,343-349, 1990, and Farrell, T J, et at, Proc SPIE1426, 146-155, 1991).
1. Inject compound at 2.5 mg/ml into tail vein of adult Wistat rats at doses of 5, 10.20 mg/kg.
2. 24 hours later expose liver by laparotomy and irradiate surface at up to four locations with a 5 mm diameter lightbeam from an argon-dye laser operating at 650 nm: incident power =40 m Watt: incident fluenee rate =200 mW cm^-2 : treatment time =5 or 10 minutes (60. 120 Joules cm^-2).
3. 24 hours later inject Evans Blue iv, sacrifice at 15 minutes, section Liver through each radiation spot and measure depth of necrosis as indicated by dye exclusion.

[3] = Singlet oxygen generation by photo-degradation of nitrosoanaline dye; conditions: 15 minutes of irradiation, 4° C.
[4] = with light dose, 50% reduction in cancer cell growth vs untreated control, 24 h incubation with sensitizer

Compound	ε (molar extinction coefficient) [1] [M⁻¹ cm⁻¹]	λmax Q [1]	PI (phototoxicity index) [2]	IC50 [2, 4] [nM]	other results
O=C(O)c1ccncc1C(=O)O.O=C(O)c1ccncc1C(=O)O.c1ccc2c(c1)C1=NC2=Nc2c3ccccc3c3[n]2[Ru][n]2c(c4ccccc4c2=NC2=NC(=N3)c3ccccc32)=N1 [RuPc(34PDCA)2]	58800	630	47.6	2100	
K2 [Ru(Pc)bis(triphenvlphosphine monosulfonate)]trihydrate [Compound A]	88200	650	> 100	1140	depths of necrosis compared with previously studied agents (normal rat liver; at similar drug and light levels, Photofrin and AlSPc given ip): comparable to those with previously studied agents; Depth of Necrosis (normal rat liver; dose 5 mg/kg iv, fluence 60 J cm^-2, 650 nm): 1.86 ± 0.34 mm; Depth of Necrosis (normal rat liver; dose 5 mg/kg iv, fluence 120 J cm^-2, 650 nm): 2.5 ± 0.0 mm; Depth of Necrosis (normal rat liver; dose 10 mg/kg iv, fluence 60 J cm^-2, 650 nm): 2.16 ± 0.10 mm; Depth of Necrosis (normal rat liver; dose 10 mg/kg iv, fluence 120 J cm^-2, 650 nm): 2.41 ± 0.16 mm; Depth of Necrosis (normal rat liver; dose 20 mg/kg iv, fluence 60 J cm^-2, 650 nm): 1.66 ± 0.05 mm; Depth of Necrosis (normal rat liver; dose 20 mg/kg iv, fluence 120 J cm^-2, 650 nm): 1.94 ± 0.04 mm; photodynamic activity in vivo (normal rat liver; in words): photodynamically active in vivo
Fc1c(F)c(F)c2c(c1F)C1=NC2=Nc2c3c(F)c(F)c(F)c(F)c3c3[n]2[Ru][n]2c(c4c(F)c(F)c(F)c(F)c4c2=NC2=NC(=N3)c3c(F)c(F)c(F)c(F)c32)=N1.O=C(O)c1cccnc1.O=C(O)c1cccnc1 [RuF16 Pc(Nic)2]	55700				PC50 (phototoxic concentration 50%) [2, 4]: Inactive
NCCC(=O)[O-].NCCC(=O)[O-].[K+].[K+].c1ccc2cc3c(cc2c1)C1=NC2=NC(=Nc4c5cc6ccccc6cc5c5[n]4[Ru][n]4c(c6cc7ccccc7cc6c4=N5)=NC3=N1)c1cc3ccccc3cc12 [RuNc(β-ALA)2]	36500	730	1.51	960	
aluminium phthalocyanine sulphonate					rate of singlet oxygen production [3]: on the order of one or two logs better than some of the sensitizers listed
